This is an account of results in patent US11524948B2, “Prodrugs of alpha-ketoglutarate, alpha-ketobutyrate, alpha-ketoisovalerate, and alpha-ketoisohexanoate, and uses thereof” (The Regents of the University of California, priority 2018, dated 2022).

Assay [1] deals with mTORC1. Nature of the assay: Western blot of mTORC1 signaling in H9C2 rat cardiomyocytes. The assay is classed as cell-based. Conditions: H9C2 cells. Here is the method:
(§1) H9C2 rat cardiomyocyte cells were grown in DMEM media (ATCC #30-2002) supplemented with 10% FBS. Stock solutions of MJX series compounds were prepared in DMSO, while the stock solution of α-ketobutyrate was prepared in dH2O. Cells were seeded in the afternoon at 70-80% confluency and the next morning treated with the indicated concentrations of compounds for the indicated times. Cells were then washed with ice-cold PBS and immediately lysed on ice with RIPA buffer. Lysates were clarified at 18,000 g at 4° C., the supernatants transferred to new tubes, mixed with […] of 5×SDS-PAGE loading buffer, and heated for 10 minutes at 70° C. Lysates were then separated by SDS-PAGE using 4-12% Bis-Tris gels (Life Technologies) and transferred to PVDF membranes (Millipore) for western blotting analysis. All antibodies were purchased from Cell Signaling.

The subject of assay [2] is AMPK signaling pathway. Nature of the assay: Western blot of AMPK signaling in H9C2 rat cardiomyocytes. It counts as cell-based. The following applies: H9C2 cells. Here is the method:
as §1

For assay [3], the system named is mTORC2. Put plainly: Western blot of mTORC2 signaling in H9C2 rat cardiomyocytes. Conditions: H9C2 cells, FIGS. 2C, 2E. The assay is classed as cell-based. Here is the method: as §1
Assay [4] has as its system mTOR signaling. Nature of the assay: Western blot of mTOR signaling in H9C2 rat cardiomyocytes. The assay is classed as cell-based. Conditions: H9C2 cells, 15 min to 8 hr, FIGS. 2C, 2E, 2F. Here is the method: as §1
For assay [5], the system named is H9C2 Cells. Nature of the assay: Proliferation of H9C2 cells. The assay is classed as cell-based, rat. Conditions: FIGS. 6A & 6B.
The subject of assay [6] is H9C2 Cells. Put plainly: [U-13C6]glucose tracing of metabolites in H9C2 cells (LC-MS). The assay is classed as cell-based, rat. Conditions: 24 h, FIG. 4. The protocol:
To evaluate the metabolic pathways in use, H9C2 Cells were cultured with designated compounds and medium containing [U-^13C6]glucose for 24 h. Metabolites were extracted for LC-MS detection.

In assay [7] the test system is Caenorhabditis elegans. Nature of the assay: Lifespan of N2 wildtype C. elegans on NGM treatment plates containing compound. More on the design: mean lifespan: unit not given here. The assay is classed as in vivo. Conditions: for mean lifespan / % increase (mean lifespan): FIG. 1B experiment; for mean lifespan: DMSO control 15.3; for % increase (mean lifespan): vs DMSO. Here is the method: The anti-aging effects of MJX001-MJX005 were tested in the nematode Caenorhabditis elegans. Worms of the N2 wildtype strain of C. elegans were age-synchronized by performing either a timed egg lay or an egg preparation (mix <100 gravid worms in 70 μl M9 buffer, 25 μl bleach and 5 μl 10 N NaOH). Once the worms reached day 1 of adulthood, they were picked onto NGM treatment plates containing 1.5% dimethyl sulfoxide (DMSO; Sigma D8418), 49.5 μM 5-fluoro-2′-deoxyuridine (FUDR, Sigma F0503), and either […] (Sigma K401) or one of the MJX series test compounds. All plates were adjusted to pH 6.0 (i.e., the same pH as the control plates) if necessary by the addition of NaOH. Once dry, the plates were seeded with OP50 E. coli as the C. elegans food source. […] Worms were moved to new plates every 4 days. All worms were maintained in a single humidified, temperature-controlled incubator at 20° C. Lifespan curves were generated and statistical analyses performed.

SMILES strings stand for the structures. Entries after “also recorded” stand apart in the source; their conditions may differ.

As to `C/C=c1\oc(=O)/c(=C/C)oc1=O` [MJX004], the “inhibition of mTORC1” value in assay [1] (at 4 and 8 hr, FIG. 2E) is on record as “sustained inhibition of mTORC1”. For the same compound, the “mTORC1 signaling (phosphorylation of mTORC1 targets S6K (T389), 4E-BP1 (S65), ULK1 (S757))” value in assay [1] (western blot, FIGS. 2A, 2B, 2C, 2F) is “inhibited mTORC1 signaling”. Moreover, the “time course of AMPK activation” value in assay [2] (15 min to 8 hr, FIGS. 2C, 2E, 2F) is recorded as “less potent but more prolonged”. The “activation of AMPK” value in assay [2] (at 4 hr, FIG. 2E) was “strong activation of AMPK”. Also, the “activation of AMPK signaling pathway (phosphorylation of AMPK targets ACC (S79) and ULK1 (S555))” value in assay [2] (western blot, FIGS. 2A, 2B, 2F) is “activate the AMPK pathway”. Also, the “time course of inhibition of mTORC2 (decreased phosphorylation of Akt (S473))” value in assay [3] was “strongest after just 15 and 30 minutes treatment, but recovered to normal levels by 2 hr and beyond”. Also, the “time course of inhibition of mTOR signaling” value in assay [4] is reported as “less potent but more prolonged; also recorded: more prolonged effect on mTOR signaling”. The “effect on proliferation (inhibition), rank order” value in assay [5] is recorded as “strongest effect on proliferation”. Also, in assay [6], the “M2 citrate using [U-13C6]glucose as a tracer” value is “decreased M2 citrate”. The mean lifespan in assay [7] (1 mM) is on record as 19.7; in assay [7] (2 mM), 20.0; in assay [7] (4 mM) it was 21.1. Moreover, the “% increase (mean lifespan)” value in assay [7] (1 mM) stood at 28.7%; in assay [7] (2 mM), 30.9%; in assay [7] (4 mM), 38.0%. Also, the “effect on C. elegans lifespan” value in assay [7] (FIGS. 1A-1C, result in words) is reported as “dose-dependent increases in lifespan”.
